# In patent US8785482B2, “Cyclohexene benzotriazole derivatives” (Merck Sharp & Dohme Corp., priority 2011, dated 2014):
# pEC50: −log10 of the molar value.
# Biological target: T1, recombinant human mGluR2 (Homo sapiens, UniProt Q14416)
# T1 construct: expressed in transfected cells
# Experiment: FLIPR Ca2+ mobilization assay, potentiation of glutamate response
# Assay type: cell-based
# Conditions: CHO dhfr- cells expressing human mGluR2 and Gα16, EC20 glutamate (900 nM)
# Protocol: Potencies are determined as follows. The compounds of the present invention may be tested in a fluorescence laser imaging plate reader (FLIPR) based assay. This assay is a common functional assay to monitor Ca^2+ mobilization in whole cells expressing recombinant receptor coupled with a promiscuous G-protein. CHO dhfr-cells stably expressing recombinant human mGluR2 and Gα16 loaded with Fluo-4 AM (Invitrogen, Carlsbad Calif.) are treated with varying concentrations of compounds and the Ca^2+ response is monitored on a FLIPR384 (Molecular Devices, Sunnydale Calif.) for agonist activity. The potentiation response is monitored after a subsequent addition of an EC20 concentration of glutamate (900 nM). The maximum calcium response at each concentration of compound for agonism or potentiation are plotted as dose responses curves fitted with a four parameters logistic equation giving EC50 and Hill coefficient using the iterative non linear curve fitting software program.
# Such results are indicative of the intrinsic activity of the compounds in use as potentiators of mGluR2 receptor activity.
# T1 sequence (Q14416 19-872): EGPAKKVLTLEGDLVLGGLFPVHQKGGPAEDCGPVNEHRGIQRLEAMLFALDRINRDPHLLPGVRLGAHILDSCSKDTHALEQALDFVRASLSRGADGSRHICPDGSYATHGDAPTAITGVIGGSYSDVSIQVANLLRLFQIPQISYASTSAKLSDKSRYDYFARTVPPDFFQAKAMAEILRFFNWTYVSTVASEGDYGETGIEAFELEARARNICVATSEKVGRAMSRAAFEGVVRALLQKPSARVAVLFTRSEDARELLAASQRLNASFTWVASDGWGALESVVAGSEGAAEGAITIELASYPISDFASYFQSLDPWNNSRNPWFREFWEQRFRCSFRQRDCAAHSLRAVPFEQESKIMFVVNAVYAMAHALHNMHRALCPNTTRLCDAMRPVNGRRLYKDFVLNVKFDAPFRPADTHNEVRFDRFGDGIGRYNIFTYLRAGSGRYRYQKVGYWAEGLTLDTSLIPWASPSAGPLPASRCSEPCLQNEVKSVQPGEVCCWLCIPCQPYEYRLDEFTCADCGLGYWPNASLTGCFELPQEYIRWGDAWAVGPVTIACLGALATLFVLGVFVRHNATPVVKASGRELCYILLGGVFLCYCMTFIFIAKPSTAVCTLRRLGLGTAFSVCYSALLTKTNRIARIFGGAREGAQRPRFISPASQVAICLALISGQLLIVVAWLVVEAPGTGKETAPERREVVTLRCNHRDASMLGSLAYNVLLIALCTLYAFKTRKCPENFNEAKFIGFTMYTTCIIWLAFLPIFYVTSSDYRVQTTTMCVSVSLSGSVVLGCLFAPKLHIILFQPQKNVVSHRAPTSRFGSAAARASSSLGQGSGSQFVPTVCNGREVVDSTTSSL
row,SMILES,pEC50
1,"COC(=O)C1CC=C(c2ccc3c(nnn3CC3CC3)c2C(F)(F)F)CC1 (centres unmarked) [Example 7, Methyl 4-[1-(cyclopropylmethyl)-4-(trifluoromethyl)-1H-benzotriazol-5-yl]cyclohex-3-ene-1-carboxylate]",7.51
2,"OC1CC=C(c2ccc3c(nnn3CC3CC3)c2Cl)CC1 (centres unmarked) [Example 5, 4-[4-chloro-1-(cyclopropylmethyl)-1H-benzotriazol-5-yl]cyclohex-3-en-1-ol]",6.39
3,"CN1C(=O)CN(CC2CC=C(c3ccc4c(nnn4CC4CC4)c3C(F)(F)F)CC2)C1=O (centres unmarked) [Example 8, 1-({4-[1-(Cyclopropylmethyl)-4-(trifluoromethyl)-1H-benzotriazol-5-yl]cyclohex-3-en-1-yl}methyl)-3-methylimidazolidine-2,4-dione]",7.82
4,"OCC1CC=C(c2ccc3c(nnn3CC3CC3)c2Cl)CC1 (centres unmarked) [Example 2, {4-[4-Chloro-1-(cyclopropylmethyl)-1H-benzotriazol-5-yl]cyclohex-3-en-1-yl}methanol]",7.11
5,"COC(=O)C1CC=C(c2ccc3c(nnn3CC3CC3)c2Cl)CC1 (centres unmarked) [Example 1, Methyl 4-[4-chloro-1-(cyclopropylmethyl)-1H-benzotriazol-5-yl]cyclohex-3-ene-1-carboxylate]",6.43
6,"CN1CC(c2ccc3c(nnn3CC(C)(C)C)c2Br)=CCC1CO (centres unmarked) [Example 9, {5-[4-Bromo-1-(2,2-dimethylpropyl)-1H-benzotriazol-5-yl]-1-methyl-1,2,3,6-tetrahydropyridin-2-yl}methanol]",5.81
7,"CN1C(=O)CN(CC2CC=C(c3ccc4c(nnn4CC4CC4)c3Br)CC2)C1=O (centres unmarked) [Example 11, 1-({4-[4-Bromo-1-(cyclopropylmethyl)-1H-benzotriazol-5-yl]cyclohex-3-en-1-yl}methyl)-3-methylimidazolidine-2,4-dione]",8.04
8,"N#CC1CC=C(c2ccc3c(nnn3CC3CC3)c2Cl)CC1 (centres unmarked) [Example 6, 4-[4-chloro-1-(cyclopropylmethyl)-1H-benzotriazol-5-yl]cyclohex-3-ene-1-carbonitrile]",6.15
9,"OCC1CC=C(c2ccc3c(nnn3CC3CC3)c2Br)CC1 (centres unmarked) [Example 10, {4-[4-Bromo-1-(cyclopropylmethyl)-1H-benzotriazol-5-yl]cyclohex-3-en-1-yl}methanol]",7.28
10,"Clc1c(C2=CCCCC2)ccc2c1nnn2CC1CC1 [Example 4, 4-chloro-5-cyclohex-1-en-1-yl-1-(cyclopropylmethyl)-1H-benzotriazole]",6.02
11,"CN1C(=O)CN(CC2CC=C(c3ccc4c(nnn4CC4CC4)c3Cl)CC2)C1=O (centres unmarked) [Example 3, 1-({4-[4-Chloro-1-(cyclopropylmethyl)-1H-benzotriazol-5-yl]cyclohex-3-en-1-yl}methyl)-3-methylimidazolidine-2,4-dione]",7.77
